In PubChem BioAssay (NCI):
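Cultured in 96-well plates, cells were exposed to test compound for 48 hours across five concentrations. Definition used: TGI = concentration required for complete inhibition of growth.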

Columns and labels:
Assay in all cases: growth of human tumour cells (NCI), 48 h
786-0 renal = test system: 786-0 renal
A498 renal = test system: A498 renal
A549 NSCLC = test system: A549 NSCLC
ACHN renal = test system: ACHN renal
BT-549 breast = test system: BT-549 breast
CAKI-1 renal = test system: CAKI-1 renal
COLO 205 colon = test system: COLO 205 colon
DU-145 prostate = test system: DU-145 prostate
EKVX NSCLC = test system: EKVX NSCLC
HCC-2998 colon = test system: HCC-2998 colon
HCT-116 colon = test system: HCT-116 colon
HCT-15 colon = test system: HCT-15 colon
HOP-62 NSCLC = test system: HOP-62 NSCLC
HOP-92 NSCLC = test system: HOP-92 NSCLC
HS 578T breast = test system: HS 578T breast
HT29 colon = test system: HT29 colon
IGROV1 ovarian = test system: IGROV1 ovarian
K-562 leukemia = test system: K-562 leukemia
KM12 colon = test system: KM12 colon
LOX IMVI melanoma = test system: LOX IMVI melanoma
M14 melanoma = test system: M14 melanoma
MALME-3M melanoma = test system: MALME-3M melanoma
MCF7 breast = test system: MCF7 breast
MDA-MB-231 breast = test system: MDA-MB-231 breast
MDA-MB-435 = test system: MDA-MB-435
MDA-N = test system: MDA-N
MOLT-4 leukemia = test system: MOLT-4 leukemia
NCI-H226 lung = test system: NCI-H226 lung
NCI-H23 lung = test system: NCI-H23 lung
NCI-H460 lung = test system: NCI-H460 lung
NCI-H522 lung = test system: NCI-H522 lung
NCI/ADR-RES ovarian = test system: NCI/ADR-RES ovarian
OVCAR-3 ovarian = test system: OVCAR-3 ovarian
OVCAR-4 ovarian = test system: OVCAR-4 ovarian
OVCAR-5 ovarian = test system: OVCAR-5 ovarian
OVCAR-8 ovarian = test system: OVCAR-8 ovarian
PC-3 prostate = test system: PC-3 prostate
RPMI-8226 leukemia = test system: RPMI-8226 leukemia
RXF 393 renal = test system: RXF 393 renal
SF-268 CNS = test system: SF-268 CNS
SF-295 CNS = test system: SF-295 CNS
SF-539 CNS = test system: SF-539 CNS
SK-MEL-2 melanoma = test system: SK-MEL-2 melanoma
SK-MEL-28 melanoma = test system: SK-MEL-28 melanoma
SK-MEL-5 melanoma = test system: SK-MEL-5 melanoma
SK-OV-3 ovarian = test system: SK-OV-3 ovarian
SN12C renal = test system: SN12C renal
SNB-19 CNS = test system: SNB-19 CNS
SNB-75 CNS = test system: SNB-75 CNS
SR leukemia = test system: SR leukemia
SW-620 colon = test system: SW-620 colon
T-47D breast = test system: T-47D breast
TK-10 renal = test system: TK-10 renal
U251 CNS = test system: U251 CNS
UACC-257 melanoma = test system: UACC-257 melanoma
UACC-62 melanoma = test system: UACC-62 melanoma
UO-31 renal = test system: UO-31 renal

With NCCC1CN(C(=O)OCc2ccccc2)c2ccccc21 (configuration not stated) as the compound, how does the TGI (786-0 renal) read?
Its TGI is 29.8 µM.

What about the TGI (A498 renal) of the same compound?
Its TGI is > 52.2 µM.

And the TGI (A549 NSCLC)?
The TGI was > 53.6 µM.

What about the TGI (ACHN renal) of the same compound?
Its TGI is > 54.6 µM.

What about the TGI (BT-549 breast) of the same compound?
Its TGI is 40.4 µM.

What about the TGI (CAKI-1 renal) of the same compound?
The TGI was > 50.7 µM.

And the TGI (COLO 205 colon)?
The TGI was 31.5 µM.

And the TGI (DU-145 prostate)?
Its TGI is 48.9 µM.

And the TGI (EKVX NSCLC)?
Its TGI is 84.4 µM.

What about the TGI (HCC-2998 colon) of the same compound?
Its TGI is 33.9 µM.

What about the TGI (HCT-116 colon) of the same compound?
The TGI was 15.6 µM.

What about the TGI (HCT-15 colon) of the same compound?
Its TGI is 14.5 µM.

What about the TGI (HOP-62 NSCLC) of the same compound?
The TGI was > 54.4 µM.

What about the TGI (HOP-92 NSCLC) of the same compound?
Its TGI is 26.9 µM.

What about the TGI (HS 578T breast) of the same compound?
Its TGI is 56.8 µM.

What about the TGI (HT29 colon) of the same compound?
Its TGI is 25.8 µM.

What about the TGI (IGROV1 ovarian) of the same compound?
Its TGI is 33 µM.

What about the TGI (K-562 leukemia) of the same compound?
The TGI was 26.9 µM.

And the TGI (KM12 colon)?
Its TGI is 48.2 µM.

And the TGI (LOX IMVI melanoma)?
Its TGI is 17.1 µM.

And the TGI (M14 melanoma)?
Its TGI is 27.4 µM.

And the TGI (MALME-3M melanoma)?
The TGI was 29.1 µM.

What about the TGI (MCF7 breast) of the same compound?
The TGI was 22.9 µM.

What about the TGI (MDA-MB-231 breast) of the same compound?
Its TGI is 46.6 µM.

And the TGI (MDA-MB-435)?
Its TGI is 30 µM.

What about the TGI (MDA-N) of the same compound?
Its TGI is 26.6 µM.

And the TGI (MOLT-4 leukemia)?
The TGI was 52.1 µM.

What about the TGI (NCI-H226 lung) of the same compound?
Its TGI is 26.8 µM.

And the TGI (NCI-H23 lung)?
Its TGI is 41.8 µM.

And the TGI (NCI-H460 lung)?
Its TGI is 43.4 µM.

And the TGI (NCI-H522 lung)?
The TGI was 28.8 µM.

And the TGI (NCI/ADR-RES ovarian)?
Its TGI is 36.7 µM.

What about the TGI (OVCAR-3 ovarian) of the same compound?
The TGI was 45.6 µM.

What about the TGI (OVCAR-4 ovarian) of the same compound?
Its TGI is > 55.8 µM.

What about the TGI (OVCAR-5 ovarian) of the same compound?
Its TGI is 45.4 µM.

And the TGI (OVCAR-8 ovarian)?
Its TGI is 20.3 µM.

And the TGI (PC-3 prostate)?
The TGI was > 36.2 µM.

And the TGI (RPMI-8226 leukemia)?
The TGI was 46.6 µM.

What about the TGI (RXF 393 renal) of the same compound?
The TGI was 32.3 µM.

And the TGI (SF-268 CNS)?
The TGI was 39.4 µM.

What about the TGI (SF-295 CNS) of the same compound?
Its TGI is 40.3 µM.

What about the TGI (SF-539 CNS) of the same compound?
The TGI was 14.4 µM.

And the TGI (SK-MEL-2 melanoma)?
Its TGI is 36.3 µM.

What about the TGI (SK-MEL-28 melanoma) of the same compound?
The TGI was 36 µM.

What about the TGI (SK-MEL-5 melanoma) of the same compound?
The TGI was 24.7 µM.

What about the TGI (SK-OV-3 ovarian) of the same compound?
The TGI was > 59.6 µM.

What about the TGI (SN12C renal) of the same compound?
The TGI was 27.3 µM.

And the TGI (SNB-19 CNS)?
Its TGI is > 51.3 µM.

What about the TGI (SNB-75 CNS) of the same compound?
The TGI was 43.3 µM.

What about the TGI (SR leukemia) of the same compound?
The TGI was 10.1 µM.

What about the TGI (SW-620 colon) of the same compound?
Its TGI is 25.4 µM.

And the TGI (T-47D breast)?
The TGI was 28 µM.

And the TGI (TK-10 renal)?
Its TGI is > 54.8 µM.

What about the TGI (U251 CNS) of the same compound?
The TGI was 32.4 µM.

And the TGI (UACC-257 melanoma)?
Its TGI is 37.8 µM.

What about the TGI (UACC-62 melanoma) of the same compound?
Its TGI is 33.2 µM.

What about the TGI (UO-31 renal) of the same compound?
Its TGI is 27.3 µM.
